This note sets out measurements from BindingDB's records for doi:10.1021/jm00018a011 (Pfizer, 1995).

This assay has as its target Platelet-activating factor receptor (Oryctolagus cuniculus). Description: Antagonistic activity was tested against Platelet-Activating Factor-induced aggregation of rabbit washed platelets.
In the case of `Cc1nc2cnccc2n1-c1ccc(C2CC(=O)Nc3cc(Cl)c(Cl)cc3C2)cc1` (centres undefined) [7,8-Dichloro-4-[4-(2-methyl-imidazo[4,5-c]pyridin-1-yl)-phenyl]-1,3,4,5-tetrahydro-benzo[b]azepin-2-one], the midpoint of inhibition, the IC50, lay at 0.5 nM.

Turning to `Cc1nc2cnccc2n1-c1ccc(-c2nnc(-c3ccccc3)o2)cc1` [2-Methyl-1-[4-(5-phenyl-[1,3,4]oxadiazol-2-yl)-phenyl]-1H-imidazo[4,5-c]pyridine], the IC50 was determined as 44 nM.

`Cc1nc2cnccc2n1-c1ccc(I)cc1` [1-(4-Iodo-phenyl)-2-methyl-1H-imidazo[4,5-c]pyridine] registered an IC50 of 67 nM.

In turn, `Cc1nc2cnccc2n1-c1ccc(C2CC(=O)N(C)c3cc(Cl)c(Cl)cc3C2)cc1` (centres undefined) [7,8-Dichloro-1-methyl-4-[4-(2-methyl-imidazo[4,5-c]pyridin-1-yl)-phenyl]-1,3,4,5-tetrahydro-benzo[b]azepin-2-one] gave an IC50 of 0.5 nM.

The compound `Cc1nc2cnccc2n1-c1ccc(C2=Nc3ccccc3N(C)C(=O)C2)cc1` [1-Methyl-4-[4-(2-methyl-imidazo[4,5-c]pyridin-1-yl)-phenyl]-1,3-dihydro-benzo[b][1,4]diazepin-2-one] displayed an IC50 of 4.9 nM.

In the case of `Cc1nc2cnccc2n1-c1ccc(-c2cc(=O)n3[nH]ccc3n2)cc1` [5-[4-(2-Methyl-imidazo[4,5-c]pyridin-1-yl)-phenyl]-4H-pyrazolo[1,5-a]pyrimidin-7-one], half-maximal inhibition (IC50) was put at 2800 nM. This IC50 is about 570-fold higher than that of the compound before.

For the compound `Cc1nc2cnccc2n1-c1ccc(C2=NCCNC(=O)C2)cc1` [7-[4-(2-Methyl-imidazo[4,5-c]pyridin-1-yl)-phenyl]-1,2,3,4-tetrahydro-[1,4]diazepin-5-one], the IC50 is 2600 nM.

In turn, `Cc1cc2c(cc1C)NC(=S)CC(c1ccc(-n3c(C)nc4cnccc43)cc1)=N2` [7,8-Dimethyl-4-[4-(2-methyl-imidazo[4,5-c]pyridin-1-yl)-phenyl]-1,3-dihydro-benzo[b][1,4]diazepine-2-thione] had an IC50 of 0.6 nM. This IC50 is about 4300-fold lower than that of the compound before.

With `Cc1cc2c(cc1C)N=C(c1ccc(-n3c(C)nc4cnccc43)cc1)CC(N)=N2` [7,8-Dimethyl-4-[4-(2-methyl-imidazo[4,5-c]pyridin-1-yl)-phenyl]-1,3-dihydro-benzo[b][1,4]diazepin-(2E)-ylideneamine], the IC50 was 1.9 nM.

For `Cc1nc2cnccc2n1-c1ccc(C2=Nc3cc(Cl)c(Cl)cc3NC(=S)C2)cc1` [7,8-Dichloro-4-[4-(2-methyl-imidazo[4,5-c]pyridin-1-yl)-phenyl]-1,3-dihydro-benzo[b][1,4]diazepine-2-thione], half-maximal inhibition (IC50) required 0.5 nM.

The compound `Cc1nc2cnccc2n1-c1ccc(C2=NC3CCCCC3NC(=O)C2)cc1` (centres undefined) [4-[4-(2-Methyl-imidazo[4,5-c]pyridin-1-yl)-phenyl]-1,5,5a,6,7,8,9,9a-octahydro-benzo[b][1,4]diazepin-2-one] yielded an IC50 of 200 nM.

Regarding `Cc1nc2cnccc2n1-c1ccc(C2=Nc3ccccc3C(=O)CC2)cc1` [2-[4-(2-Methyl-imidazo[4,5-c]pyridin-1-yl)-phenyl]-1,4-dihydro-benzo[b]azepin-5-one], the IC50 stood at 15 nM.

Take `Cc1cc2c(cc1C)NC(=O)CC(c1ccc(-n3c(C)nc4cnccc43)cc1)=N2` [7,8-Dimethyl-4-[4-(2-methyl-imidazo[4,5-c]pyridin-1-yl)-phenyl]-1,3-dihydro-benzo[b][1,4]diazepin-2-one]: the IC50 was found to be 0.7 nM.

`Cc1nc2cnccc2n1-c1ccccc1` [2-Methyl-1-phenyl-1H-imidazo[4,5-c]pyridine] showed an IC50 of 840 nM. This IC50 is about 1200-fold higher than that of the compound before.
